This test deals with human platelets in platelet-rich plasma. Kind of test: Platelet aggregation inhibition assay (ADP-induced, platelet-rich plasma). The test is classed as cell-based. To be noted: fresh human platelet-rich plasma, 300,000 platelets per microliter; ADP 10 to 15 micromolar; read-out: IC50: concentration of reagent that inhibits by 50% the aggregation of human platelets in platelet-rich plasma induced by ADP. How it is done: Platelet aggregation studies were performed essentially as described by Zucker (1989, Methods in Enzymol. 169: 117-133). Briefly, platelet aggregation was assayed with or without putative platelet aggregation inhibitory compounds using fresh human platelet-rich plasma, comprising 300,000 platelets per microliter. Platelet aggregation was induced by the addition of a solution of adenosine diphosphate to a final concentration of 10 to 15 micromolar, and the extent of platelet aggregation monitored using a Bio/Data aggregometer (Bio/Data Corp., Horsham, Pa.). The concentrations of platelet aggregation inhibitory compounds used were varied from 0.1 to 500 μg/mL. The concentration of inhibitor that reduced the extent of platelet aggregation by 50% (defined as the IC50) was determined from plots of inhibitor concentration versus extent of platelet aggregation. An inhibition curve for peptide RGDS was determined for each batch of platelets tested as a positive control.

As for `CC(=O)NCSC[C@H](NC(=O)CNC(=O)CNC(=O)[C@@H]1CSCC(=O)N[C@H](Cc2ccc(O)cc2)C(=O)N[C@@H](CSCCCN)C(=O)NCC(=O)N[C@@H](CC(=O)O)C(=O)N1)C(=O)NCC(=O)N[C@@H](CSCNC(C)=O)C(=O)NCC(=O)NCC(=O)N[C@H](Cc1ccccc1)C(=O)N1CCC[C@H]1C(=O)N[C@@H](CCCNC(=N)N)C(=O)N1CCC[C@H]1C(=O)NCC(N)=O` [Peptide P245, CH2 CO--YD.Apc.GDCGGCAcm GCAcm GGFD PRPGamide], the IC50 worked out at 0.5 µM. The value for “(CH2 CO--YD ApcGDCKGCAcm GCAcm GGC-amide)2 --BSME [Peptide P381]” was 0.035 µM; that for GRDGVRGDFCAcm GCAcm amide [Peptide P98] was 15 µM; that for “GRGDVRGDFKCAcm GCAcm amide [Peptide P97]” was 8 µM.

For the origin of these results see patent US5925331A, “Technetium-99m labeled peptides for thrombus imaging” (Diatide, Inc., priority 1995, dated 1999).
